From patent US9930890B2 (priority 2010, dated 2018) come the findings set out here.

SMILES strings stand for the structures.

In one data set the test system is Phytophthora infestans. Type of data set: in vivo. The settings on record: tomato plants, protective spray, active ingredient concentration 100 ppm, evaluation 7 days after inoculation; 0% = control, 100% = no infection.
The next data set concerns Plasmopara viticola. Briefly: Plasmopara test (grapevine)/protective. It counts as in vivo. The settings on record: grapevine young plants, protective spray, active ingredient concentration 10 ppm, evaluation 6 days after inoculation; 0% = control, 100% = no infection. Here is the method: Plasmopara Test (Grapevine)/Protective
To produce an appropriate active ingredient formulation, 1 part by weight of active ingredient is mixed with the specified amounts of solvent and emulsifier, and the concentrate is diluted with water to the desired concentration.
To test for protective efficacy, young plants are sprayed with the active ingredient formulation at the stated application rate. After the spray coating has dried on, the plants are inoculated with an aqueous spore suspension of Plasmopara viticola and then remain in an incubation cabin at approx. 20° C. and 100% relative air humidity for 1 day. Subsequently, the plants are placed in a greenhouse at approx. 21° C. and approx. 90% air humidity for 4 days. The plants are then moistened and placed in an incubation cabin for 1 day.
Evaluation follows 6 days after the inoculation. 0% means an efficacy which corresponds to that of the control, whereas an efficacy of 100% means that no infection is observed.
In this test, the following inventive compounds show, at an active ingredient concentration of 10 ppm, an efficacy of 70% or more: […]

In a further data set the test system is Peronospora brassicae. Nature of the data set: Peronospora test (oilseed rape seeds)/seed treatment. Type of data set: in vivo. The settings on record: seed treatment, dose 50 g/dt, infected leaf area per plant after 7 days incubation, 0% = control, 100% = no disease. On the procedure:
Peronospora Test (Oilseed Rape Seeds)/Seed Treatment
The test was conducted under greenhouse conditions.
Oilseed rape seeds treated with an inventive active compound or a combination of inventive active compounds dissolved in N-methyl-2-pyrrolidone and diluted with water to the desired dose were sown in 6*6 cm vessels. The vessels contain 4 cm of a 1:1 mixture of steam-treated field soil and sand. The plants grew at 10° C.
14-day-old plants were inoculated with an aqueous spore suspension of Peronospora brassicae. The vessels containing the plants were incubated in a greenhouse at a temperature of 15° C. and a relative air humidity of 100% for 7 days.
The assessment of the test included the evaluation of the infected leaf area per plant. 0% means an efficiency corresponding to that of the control, while an efficiency of 100% means that no disease is observed.

For data set [1] the following is noted: for logp [a]: pH 2.7; for logp [b]: pH 7.8.

On to `O=C(Cn1nc(C(F)F)cc1C(F)F)N1CCC(c2nc(C3=NOC(c4ccccc4C=NO)C3)cs2)CC1` (mixture of isomers) [I-4], for which the Eff. % is 100% in the data set with Phytophthora infestans, 100% in the data set with Plasmopara viticola and 92% in the data set with Peronospora brassicae.
Turning to `Cc1cc(C(F)(F)F)nn1CC(=O)N1CCC(c2nc(C3=NOC(c4ccccc4C=NO)C3)cs2)CC1` (mixture of isomers) [I-38], the Eff. % in the data set with Phytophthora infestans stood at 100%; in the data set with Plasmopara viticola, 95%; in the data set with Peronospora brassicae, 86%.
Take `CON=Cc1cccc(F)c1C1CC(c2csc(C3CCN(C(=O)Cn4nc(C(F)F)cc4C(F)F)CC3)n2)=NO1` (mixture of isomers) [I-60]: the Eff. % came out at 84% in the data set with Phytophthora infestans, 100% in the data set on Plasmopara viticola and 95% in the data set on Peronospora brassicae. In addition, in data set [1], the “logp [a]” value was 3.49[a],. In addition, the “logp [b]” value in data set [1] was 3.38[b].
On to `Cc1cc(C(F)(F)F)nn1CC(=O)N1CCC(c2nc(C3=NOC(c4ccccc4OS(=O)(=O)C4CC4)C3)cs2)CC1` (racemic) [I-61], for which the values for the Eff. % in the data set on Phytophthora infestans, in the data set with Plasmopara viticola and with Peronospora brassicae were 89%, 100% and 90%, respectively. Besides, the “logp [a]” value in data set [1] is 3.29[a],. Further, in data set [1], the “logp [b]” value is 3.31[b].
On the same counts, the results for `Cc1cc(C(F)(F)F)nn1CC(=O)N1CCC(c2nc(C3=NOC(c4ccccc4OS(C)(=O)=O)C3)cs2)CC1` (racemic) [I-62] are 89%, 100%, 90%, 3.07[a], and 2.98[b].
On the same counts, the results for `CCS(=O)(=O)Oc1ccccc1C1CC(c2csc(C3CCN(C(=O)Cn4nc(C(F)F)cc4C(F)F)CC3)n2)=NO1` (stereo not shown) [I-65] are 100%, 100%, 90%, 3.1[a], and 3.09[b].
`C#CCN(C=O)c1ccccc1C1CC(c2csc(C3CCN(C(=O)Cn4nc(C(F)F)cc4C(F)F)CC3)n2)=NO1` (stereo not shown) [I-117]: the values for the Eff. % in the data set on Phytophthora infestans and in the data set on Plasmopara viticola were 79% and 96%, respectively. In addition, the “logp [a]” value in data set [1] is 2.65[a],. The “logp [b]” value in data set [1] is 2.67[b].
Taken in the same sequence, the figures for `CCS(=O)(=O)Oc1ccccc1C1CC(c2csc(C3CCN(C(=O)Cn4nc(C(F)(F)F)cc4C)CC3)n2)=NO1` (stereo not shown) [I-119] were 89%, 100%, 3.19[a], and 3.21[b].
As for `CSCOc1ccccc1C1CC(c2csc(C3CCN(C(=O)Cn4nc(C(F)(F)F)cc4C)CC3)n2)=NO1` (stereo not shown) [I-120], the Eff. % with Phytophthora infestans is recorded as 89%. The same molecule showed an Eff. % with Plasmopara viticola of 95%. Besides, in data set [1], the “logp [a]” value is 3.59[a], and the “logp [b]” value is 3.59[b].
Regarding `N#CCN(C=O)c1ccccc1C1CC(c2csc(C3CCN(C(=O)Cn4nc(C(F)F)cc4C(F)F)CC3)n2)=NO1` (stereo not shown) [I-121], the Eff. % was found to be 100% in the data set with Phytophthora infestans and 98% in the data set on Plasmopara viticola. Besides, in data set [1], the “logp [a]” value was 2.62[a],. Further, the “logp [b]” value in data set [1] was 2.55[b].
`O=CNc1ccccc1C1CC(c2csc(C3CCN(C(=O)Nc4cc(C(F)F)ccc4C(F)F)CC3)n2)=NO1` (stereo not shown) [I-122] had an Eff. % with Phytophthora infestans of 97%. The molecule further displayed an Eff. % with Plasmopara viticola of 89%. In data set [1], the “logp [a]” value is 2.63[a], and the “logp [b]” value is 2.54[b].
On the same counts, the results for `O=CNc1ccccc1C1CC(c2csc(C3CCN(C(=O)Cc4cc(C(F)F)ccc4C(F)F)CC3)n2)=NO1` (stereo not shown) [I-123] are 100%, 73%, 2.74[a], and 2.64[b].
Take `CS(=O)(=O)Oc1ccccc1C1CC(c2csc(C3CCN(C(=O)Cn4nc(C(F)F)cc4C(F)F)CC3)n2)=NO1` (stereo not shown) [I-124]: the Eff. % in the data set with Phytophthora infestans, in the data set on Plasmopara viticola and with Peronospora brassicae was 100% each time. Besides, in data set [1], the “logp [a]” value is 2.86[a],. In addition, the “logp [b]” value in data set [1] was 2.86[b].
On to `Cc1cc(C(F)(F)F)nn1CC(=O)N1CCC(c2nc(C3=NOC(c4ccccc4OS(=O)(=O)C(F)(F)F)C3)cs2)CC1` (stereo not shown) [I-125], for which, in the data set on Phytophthora infestans, the Eff. % worked out at 89%. In addition, the Eff. % with Plasmopara viticola came out at 100%. In data set [1], the “logp [a]” value was 3.99[a], and the “logp [b]” value is 4[b].
As for `CN(C)C(=S)c1ccccc1C1CC(c2csc(C3CCN(C(=O)Cn4nc(C(F)F)cc4C(F)F)CC3)n2)=NO1` (stereo not shown) [I-127], the Eff. % in the data set on Phytophthora infestans was determined as 97%; with Plasmopara viticola, 96%. In data set [1], the “logp [a]” value was 3.11[a],. Further, in data set [1], the “logp [b]” value was 3.06[b].
`COC(=O)COc1ccc(C2CC(c3csc(C4CCN(C(=O)Cn5nc(C(F)F)cc5C(F)F)CC4)n3)=NO2)cc1` (stereo not shown) [I-128] displayed an Eff. % in the data set with Phytophthora infestans of 90%. This molecule also showed an Eff. % in the data set with Plasmopara viticola of 93%. Also, in data set [1], the “logp [a]” value is 2.89[a], and the “logp [b]” value is 2.87[b].
Turning to `O=C(Oc1ccccc1C1CC(c2csc(C3CCN(C(=O)Cn4nc(C(F)F)cc4C(F)F)CC3)n2)=NO1)c1cccc(F)c1` (stereo not shown) [I-129], the Eff. % in the data set on Phytophthora infestans turned out to be 98%. Moreover, the Eff. % in the data set with Plasmopara viticola came out at 98%. In addition, in data set [1], the “logp [a]” value was 3.76[a], and the “logp [b]” value was 3.7[b].
Take `O=C(Oc1ccccc1C1CC(c2csc(C3CCN(C(=O)Cn4nc(C(F)F)cc4C(F)F)CC3)n2)=NO1)c1ccccc1F` (stereo not shown) [I-130]: the Eff. % with Phytophthora infestans came to 100%. The molecule also returned an Eff. % in the data set with Plasmopara viticola of 100%. Besides, in data set [1], the “logp [a]” value is 3.61[a], and the “logp [b]” value was 3.58[b].
Take `O=C(Oc1ccccc1C1CC(c2csc(C3CCN(C(=O)Cn4nc(C(F)F)cc4C(F)F)CC3)n2)=NO1)c1ccccc1` (stereo not shown) [I-131]: the Eff. % with Phytophthora infestans turned out to be 100%. Also, in the data set with Plasmopara viticola, the Eff. % is 94%. In data set [1], the “logp [a]” value is 3.69[a], and the “logp [b]” value was 3.65[b].
Taken in the same sequence, the figures for `O=C(Oc1ccccc1C1CC(c2csc(C3CCN(C(=O)Cn4nc(C(F)F)cc4C(F)F)CC3)n2)=NO1)c1ccc(F)cc1` (stereo not shown) [I-132] were 100%, 96%, 3.73[a], and 3.7[b].
On the same counts, the results for `C[Si](C)(C)C#Cc1ccccc1C1CC(c2csc(C3CCN(C(=O)Cn4nc(C(F)F)cc4C(F)F)CC3)n2)=NO1` (stereo not shown) [I-133] are 100%, 85%, 4.78[a], and 4.79[b].
With `C#CCOCc1ccccc1C1CC(c2csc(C3CCN(C(=O)Cn4nc(C(F)F)cc4C(F)F)CC3)n2)=NO1` (stereo not shown) [I-138], the Eff. % in the data set on Phytophthora infestans is given as 93%; in the data set on Plasmopara viticola it was 98%. Further, the “logp [a]” value in data set [1] was 3.74[a].
`Cc1cc(C(F)(F)F)nn1CC(=O)N1CCC(c2nc(C3=NOC(c4ccccc4OCC#N)C3)cs2)CC1` (stereo not shown) [I-140] yielded an Eff. % in the data set with Phytophthora infestans of 84%. Besides, the Eff. % in the data set with Plasmopara viticola is recorded as 100%. In addition, in data set [1], the “logp [a]” value is 2.97[a], and the “logp [b]” value is 2.98[b].
